Measurements: patent US12187709B2 (Genentech, Inc., priority 2021, dated 2025)

What was measured:
c-Cbl = c-Cbl (Homo sapiens (Human), UniProt P22681); test: C-Cbl LCK Ub TR-FRET assay (C-cbl Lck HTRF); type: biochemical
How it was run: (§1)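 Detection reagents added, brief spin, 20 min RT. IC50 fit normalized to no-LCK (low) and DMSO (high) controls.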

[1] = biological target: Human Cbl-b (residues 40-426) (Homo sapiens (Human), UniProt Q13191); test: Cbl-b SPR assay; type: binding; conditions: for Fold of selectivity: C-cbl SPR Kd vs Cbl-b SPR Kd; for Kd: SPR, 20° C.
How it was run: (§2)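 Binding is measured by surface plasmon resonance against both isoforms, with double referencing and 1:1 kinetic fitting. Dissociation time is tuned to 4-5 half-lives.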

c-Cbl (residues 47-435) = c-Cbl (residues 47-435) (Homo sapiens (Human), UniProt P22681); test: c-Cbl SPR assay; type: binding; conditions: 20° C.
How it was run: as §2

Cbl-b = Cbl-b (Homo sapiens (Human), UniProt Q13191); test: Cbl-b LCK Ub TR-FRET assay (Cbl-b Lck HTRF); type: biochemical; conditions: for IC50: Cbl-b LCK Ub TR-FRET; for fold-selectivity (Cbl-b over C-cbl) / (fold-selectivity) Cbl-b and C-Cbl Selectivity: ratio C-cbl Lck HTRF IC50 / Cbl-b Lck HTRF IC50
How it was run: as §1

Chain of c-Cbl (P22681 47-435): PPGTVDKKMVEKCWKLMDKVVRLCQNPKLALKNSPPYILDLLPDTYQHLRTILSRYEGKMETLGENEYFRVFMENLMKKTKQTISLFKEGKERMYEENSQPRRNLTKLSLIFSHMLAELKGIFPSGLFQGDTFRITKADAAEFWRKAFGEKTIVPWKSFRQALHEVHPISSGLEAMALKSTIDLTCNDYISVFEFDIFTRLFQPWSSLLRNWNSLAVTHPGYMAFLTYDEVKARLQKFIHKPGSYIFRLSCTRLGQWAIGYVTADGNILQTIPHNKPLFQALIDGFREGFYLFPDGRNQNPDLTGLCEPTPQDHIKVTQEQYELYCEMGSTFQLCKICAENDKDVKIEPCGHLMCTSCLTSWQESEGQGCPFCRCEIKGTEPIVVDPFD
Chain of c-Cbl (residues 47-435) (P22681 47-435): as above
Chain of Cbl-b (Q13191 40-426): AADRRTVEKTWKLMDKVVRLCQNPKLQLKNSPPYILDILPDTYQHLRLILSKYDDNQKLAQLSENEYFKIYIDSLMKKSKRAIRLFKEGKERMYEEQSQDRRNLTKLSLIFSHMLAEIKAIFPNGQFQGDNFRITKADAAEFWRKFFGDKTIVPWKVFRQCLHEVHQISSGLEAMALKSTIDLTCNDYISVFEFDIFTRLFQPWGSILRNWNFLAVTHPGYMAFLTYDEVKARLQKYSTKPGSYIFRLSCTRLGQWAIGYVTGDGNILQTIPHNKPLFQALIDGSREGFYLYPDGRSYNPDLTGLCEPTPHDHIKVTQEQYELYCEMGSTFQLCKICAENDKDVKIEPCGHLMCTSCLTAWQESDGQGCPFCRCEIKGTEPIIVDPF
Chain of Human Cbl-b (residues 40-426) (Q13191 40-426): as above

IC50 (c-Cbl)	Fold of selectivity [1]	Kd [1]	Kd (c-Cbl (residues 47-435))	IC50 (Cbl-b)	fold-selectivity (Cbl-b over C-cbl) (Cbl-b)	IC50 (Cbl-b; Example 121)	(fold-selectivity) Cbl-b and C-Cbl Selectivity (Cbl-b)	SMILES
2000 nM	13×	360 nM	4800 nM	410 nM	4.1x			Cn1cnnc1[C@H](c1cccc(N2Cc3c(cc(CNC4(C)CCC4)cc3C(F)(F)F)C2=O)c1)C1CC(F)C1 (single isomer, unassigned) [Compound 127]
100 nM	3.9×	17 nM	67 nM	56 nM	1.9x			C[C@@H]1C[C@@](c2cccc(N3Cc4c(cc(CNC5(C)CCC5)cc4C(F)(F)F)C3=O)c2)(c2nncn2C)O1 [Compound 124, 2-(3-((2R,4R)-4-methyl-2-(4-methyl-4H-1,2,4-triazol-3-yl)oxetan-2-yl)phenyl)-6-(((1-methylcyclobutyl)amino)methyl)-4-(trifluoromethyl)isoindolin-1-one]
21 nM	7.5×	2.9 nM	22 nM	15 nM	1.4x			CO[C@H]1C[C@@](c2cc(NC(C)C)cc(N3Cc4c(cc(CNC5(C)CCC5)cc4C(F)(F)F)C3=O)c2)(c2nncn2C)C1 [Compound 223, 2-(3-(isopropylamino)-5-((1s,3s)-3-methoxy-1-(4-methyl-4H-1,2,4-triazol-3-yl)cyclobutyl)phenyl)-6-(((1-methylcyclobutyl)amino)methyl)-4-(trifluoromethyl)isoindolin-1-one]
5700 nM	16×	270 nM	4300 nM			390 nM	14x	C[C@H](NC1(C)CCC1)c1cc2c(c(C(F)F)c1)CN(c1cccc([C@@H](c3nncn3C)C3COC3)c1)C2=O (single isomer, unassigned) [Compound 407]
26 nM	17×	2.6 nM	45 nM	8.8 nM	3.0x			Cn1cnnc1[C@]1(c2cccc(N3Cc4c(cc(CNC5(C)CCC5)cc4C(F)(F)F)C3=O)c2)C[C@H](OC(F)F)C1 [Compound 335, 2-(3-((1s,3s)-3-(difluoromethoxy)-1-(4-methyl-4H-1,2,4-triazol-3-yl)cyclobutyl)phenyl)-6-(((1-methylcyclobutyl)amino)methyl)-4-(trifluoromethyl)isoindolin-1-one]
62 nM	19×	3.7 nM	68 nM	20 nM	(3.1x)			Cn1cnnc1C1(c2cccc(N3Cc4c(cc(CNC5(C)CCC5)cc4C(F)(F)F)C3=O)c2)CC2(COC2)C1 [Compound 65, 2-(3-(6-(4-methyl-4H-1,2,4-triazol-3-yl)-2-oxaspiro[3.3]heptan-6-yl)phenyl)-6-(((1-methylcyclobutyl)amino)methyl)-4-(trifluoromethyl)isoindolin-1-one]
5300 nM	4.5×	0.4 nM	1.8 nM	2400 nM	(2.4x)			CC(C)[C@H]1CN(C)CCN1Cc1cc2c(c(C(F)(F)F)c1)CN(c1cc([C@]3(c4nncn4C)C[C@@H](C)C3)cc(OC3CCCC3)n1)C2=O [Compound 72, 2-(6-(cyclopentyloxy)-4-((1S,3R)-3-methyl-1-(4-methyl-4H-1,2,4-triazol-3-y)cyclobutyl)pyridin-2-yl)-6-(((S)-2-isopropyl-4-methylpiperazin-1-yl)methyl)-4-(trifluoromethyl)isoindolin-1-one]
58 nM	18×	4.6 nM	84 nM			10 nM	5.8x	CO[C@H]1C[C@](c2cccc(N3Cc4c(cc(CNCC(C)(C)F)cc4C(F)(F)F)C3=O)c2)(c2nncn2C)C1 [Compound 483, 6-(((2-fluoro-2-methylpropyl)amino)methyl)-2-(3-((1r,3r)-3-methoxy-1-(4-methyl-4H-1,2,4-triazol-3-yl)cyclobutyl)phenyl)-4-(trifluoromethyl)isoindolin-1-one]
18 nM	7.0×	1.9 nM	14 nM	8.9 nM	2.0x			Cn1cnnc1[C@@H](c1cccc(N2Cc3c(cc(CNC4(C)CCC4)cc3C(F)(F)F)C2=O)c1)C1COC1 (single isomer, unassigned) [Compound 164]
2400 nM	8.8×	590 nM	2200 nM	450 nM	5.4x			Cn1cnnc1[C@@H](c1cccc(N2Cc3c(cc(CNC4(C)CCC4)cc3C(F)(F)F)C2=O)c1)C1CC(OCC(F)F)C1 (stereo partly drawn) [Compound 260, 2-(3-((R)-((1r,3R)-3-(2,2-difluoroethoxy)cyclobutyl)(4-methyl-4H-1,2,4-triazol-3-yl)methyl)phenyl)-6-(((1-methylcyclobutyl)amino)methyl)-4-(trifluoromethyl)isoindolin-1-one]
180 nM	22×	4.7 nM	100 nM	16 nM	11x			Cn1cnnc1C1(c2cc(NC3CCCC3)nc(N3Cc4c(cc(CNC5(C)CCC5)cc4C(F)(F)F)C3=O)c2)CC2(COC2)C1 [Compound 188, 2-(6-(cyclopentylamino)-4-(6-(4-methyl-4H-1,2,4-triazol-3-yl)-2-oxaspiro[3.3]heptna-6-yl)pyridin-2-yl)-6-(((1-methylcyclobutyl)amino)methyl)-4-(trifluoromethyl)isoindolin-1-one]
24 nM	14×	1.9 nM	26.6 nM			5.2 nM	4.7x	CO[C@H]1C[C@](c2cccc(N3Cc4c(cc(CNC5CC(C)(F)C5)cc4C(F)(F)F)C3=O)c2)(c2nncn2C)C1 (stereo partly drawn) [Compound 497, 6-(((3-fluoro-3-methylcyclobutyl)amino)methyl)-2-(3-((1r,3r)-3-methoxy-1-(4-methyl-4H-1,2,4-triazol-3-yl)cyclobutyl)phenyl)-4-(trifluoromethyl)isoindolin-1-one]
220 nM	5.5×	23 nM	130 nM	56 nM	4.0x			CO[C@H]1C[C@](c2cc(OC3COC3)cc(N3Cc4c(cc(CNC5(C)CCC5)cc4C(F)(F)F)C3=O)c2)(c2nncn2C)C1 [Compound 242, 2-(3-((1r,3r)-3-methoxy-1-(4-methyl-4H-1,2,4-triazol-3-yl)cyclobutyl)-5-(oxetan-3-yloxy)phenyl)-6-(((1-methylcyclobutyl)amino)methyl)-4-(trifluoromethyl)isoindolin-1-one]
9.5 nM	6.7×	0.9 nM	6 nM	6.8 nM	1.6x			Cn1cnnc1[C@@H](c1cccc(N2Cc3c(cc(CNC4(C)CCC4)cc3C(F)(F)F)C2=O)c1)[C@H]1C[C@@H](C)C1 (single isomer, unassigned) [Compound 379]
21 nM	8.7×	1.9 nM	16 nM	16 nM	1.3x			CO[C@H]1C[C@@](c2cc(N[C@H](C)CC#N)cc(N3Cc4c(cc(CNC5(C)CCC5)cc4C(F)(F)F)C3=O)c2)(c2nncn2C)C1 (single isomer, unassigned) [Compound 228]
4.2 nM	5.6×	0.75 nM	4.2 nM	4.1 nM	1.0x			Cn1cnnc1[C@]1(c2cccc(N3Cc4c(cc(CNC5(C)CCC5)cc4C(F)(F)F)C3=O)c2)C[C@H](Cl)C1 [Compound 138, 2-(3-((1s,3s)-3-chloro-1-(4-methyl-4H-1,2,4-triazol-3-yl)cyclobutyl)phenyl)-6-(((1-methylcyclobutyl)amino)methyl)-4-(trifluoromethyl)isoindolin-1-one]
250 nM	6.0×	12 nM	130 nM	75 nM	3.4 x			C[C@@H]1C[C@](c2cccc(N3Cc4c(cc(CNC5(C)CCC5)cc4C(F)(F)F)C3=O)c2)(c2nncn2C)O1 [Compound 126, 2-(3-((2S,4R)-4-methyl-2-(4-methyl-4H-1,2,4-triazol-3-yl)oxetan-2-yl)phenyl)-6-(((1-methylcyclobutyl)amino)methyl)-4-(trifluoromethyl)isoindolin-1-one]
560 nM	3.1×	140 nM	440 nM	280 nM	(2.0x)			Cn1cnnc1C1(c2cccc(N3Cc4c(cc(CNC5(C)CCC5)cc4C(F)(F)F)C3=O)c2)COC1 [Compound 58, 2-(3-(3-(4-methyl-4H-1,2,4-triazol-3-yl)oxetan-3-yl)phenyl)-6-(((1-methylcyclobutyl)amino)methyl)-4-(trifluoromethyl)isoindolin-1-one]
9.7 nM	6.4×	0.95 nM	6 nM	9.6 nM	1.0x			CO[C@H]1C[C@@](c2cccc(N3Cc4c(cc([C@@H](C)NC5(C)CCC5)cc4C(F)(F)F)C3=O)c2)(c2nncn2C)C1 (single isomer, unassigned) [Compound 175]
